Assay results published in publication PMC5717164 (Nature Communications, 2017).

What was measured:
[1] = molecular target: T1, D-alanine:D-alanine ligase (EcDdlB) (Escherichia coli, UniProt P07862); test: co-crystal structures at […] Å (with D-Ala-D-Ala) and […] Å (with DCSP, 4C5A); assay type: binding
T1 construct: gene ddlB; all 306 residues of the native protein, with amino-terminal histidine-tag

[2] = molecular target: T1, D-alanine:D-alanine ligase (EcDdlB); test: co-crystal structure at […] Å (formed in situ from ATP and DCS); assay type: binding

Compound | co-crystal structures at 1.5 Å (with D-Ala-D-Ala) and 1.65 Å (with DCSP, 4C5A) [1] | co-crystal structure at 1.65 Å (formed in situ from ATP and DCS) [2]
Nc1ncnc2c1ncn2[C@@H]1O[C@H](COP(=O)(O)OP(=O)(O)O)[C@@H](O)[C@H]1O [ADP] | The adenine ring of the ATP or ADP ligand lies in a pocket mainly composed of hydrophobic and aromatic residues | –
NC1CON=C1OP(=O)(O)O [DCSP, phosphorylated D-cycloserine] | – | phosphorylated DCS was bound in the high-affinity D-alanine binding site (D-Ala1)
